According to US10551384B2, “MTOR kinase mutations and methods of use thereof” (RUTGERS, THE STATE UNIVERSITY OF NEW JERSEY, priority 2016, dated 2020):

How the values were obtained:
Format in all cases: cell-based, human
[1] = tested on: SW480 colorectal cancer cells carrying L2185A mutant mTOR alleles; assay: SRB growth assay of SW480 cells carrying L2185A mutant mTOR; details: various concentrations, 2 day
Experimental: (§1) (FIG. 5A) SW480 cells carrying homozygous WT mTOR or L2185A mutant alleles were treated with various concentrations of AZD8055, INK-128, OSI-027 and PP242 for 2 day. Growth of SW480 cells was measured by SRB assay. Data represent means±SD in three independent experiments. (FIG. 5B) SW480 cells carrying homozygous WT and L2185A mutant mTOR allele were treated with a single dose of AZD8055 (100 nM), INK-128 (100 nM), OSI-027 (6,000 nM), and PP242 (2,000 nM) for different times. Cell growth was measured by SRB assay. The drug carrier DMSO was used as a control. Data represent means±SD in three independent experiments. (FIG. 5C) SW480 cells carrying homozygous WT and L2185A mutant mTOR were treated with various concentrations of INK-128, OSI-027, AZD8055 and PP242 for 1 hr. The effect on the level of P-S6K, S6K, P-4E-BP1, 4EB-P1, P-AKT and AKT was analyzed by immunoblot. […] The growth of SW480 cells was measured by SRB assay. Data represent means±SD in three independent experiments.
Cancer cell lines were maintained in DMEM or RPMI 1640, supplemented with 10% fetal bovine serum (Invitrogen) and 1% penicillin/streptomycin (Invitrogen). CRISPR/cas9 technology was used to engineer mutant mTOR allele in SW480 colorectal and H460 lung cancer cells. Briefly, The target sequence for mTOR, […] (SEQ ID NO: 3 was designed through the online tool at crispr.mit.edu, and cloned into pSPCas9(BB)-2A-GFP vector (PX458 in Addgene). Genomic mTOR mutation was engineered using a protocol as described (Ran, et al. (2013). Nature protocols 8, 2281-2308) and was confirmed by targeted sequencing.
(§2) Antibodies against tubulin, S6K, phospho-S6K (Thr389), 4E-BP1, phospho-4E-BP1 (Thr37/46), Akt, phospho-Akt (Thr308), and phospho-Akt (Ser473) were purchased from Cell Signaling Technology. […] For drug sensitivity test, cancer cells were seeded in 96-well plates at a density of 2,000 cells per well. 24 hours later, different concentrations of mTOR inhibitors were added in quadruplicate. Cell growth was measured by the sulforhodamine B (SRB) assay as previously described (Vichai, V., and Kirtikara, K. (2006). Nature protocols 1, 1112-1116).

[2] = tested on: mTORC1 and mTORC2 signaling in SW480 mTOR(L2185A) cells; assay: mTORC1/mTORC2 signaling immunoblot in SW480 cells carrying L2185A mutant mTOR; details: various concentrations, 1 hr, immunoblot of P-S6K, P-4E-BP1, P-AKT
Experimental: as §1, §2

[3] = tested on: Flag-mTOR(L2185A) in HEK293T cells; assay: mTOR signaling immunoblot in HEK293T cells transiently expressing Flag-mTOR(L2185A); details: various concentrations, 1 hr, vs WT Flag-mTOR
Experimental: (FIG. 10A) Flag-mTOR(L2185A), when transiently expressed in HEK293T cells, confers drug resistance to mTOR kinase inhibitors. HEK293T cells transiently expressing WT and L2185A mutant Flag-mTOR were treated with various concentrations of INK-128, OSI-027 for 1 hr. The effect on the level of P-S6K, S6K, P-4E-BP1, 4EB-P1, P-AKT and AKT was analyzed by immunoblot. (FIG. 10B) Sequencing verification of genome-engineered SW480 and H460 cells carrying homozygous and heterozygous L2185A mutations in mTOR locus. (FIG. 10C) Independent clones of engineered SW480 cells confer similar drug resistance. Cells were treated with various concentrations of AZD8055 and INK-128 for 2 days. Cell growth was measured by SRB assay. Clones #1, 3 carry heterozygous L2185A mutation. Clones #2, 4 carry homozygous L2185A mutation. Data represent means±SD in three independent experiments. (FIG. 10D) SW480 cells carrying heterozygous and homozygous mTOR(L2185A) mutant alleles have similar drug resistance to mTOR kinase inhibitors. SW480 cells carrying homozygous WT and L2185A mutant mTOR alleles were treated with various concentrations of AZD8055, INK-128, OSI-027, and PP242 for 2 days. Cell growth was measured by SRB assay. […] Cell growth was measured by SRB assay. […] The effect on level of P-S6K, P-4E-BP1 and P-AKT was analyzed by immunoblot. […] The growth of H460 cells was measured by SRB assay. […]

With `CC(C)n1nc(-c2ccc3oc(N)nc3c2)c2c(N)ncnc21` [INK128] the “drug resistance/sensitivity of cell growth, SW480 L2185A vs WT” value [1] was “confers resistance”, the “drug resistance of mTORC1 and mTORC2 signaling, SW480 L2185A vs WT” value [2] was “drug-resistant signaling by both mTORC1 and mTORC2” and the “drug resistance of mTOR signaling (P-S6K, P-4E-BP1, P-AKT) with Flag-mTOR(L2185A)” value [3] was “confers resistance”.
